US9144569B2, “Methods of administering an aromatase inhibitor, prostaglandin and GnRH for regulating ovulation in cattle” (UNIVERSITY OF SASKATCHEWAN, priority 2010, dated 2015)

Test system: plasma progesterone
Test: Example II: plasma progesterone, 3-day letrozole regimen
Type: in vivo, cattle
Conditions: 3-day regimen, groups combined; numerically higher
Procedure: Four days after follicular ablation, heifers were given 500 μg of cloprostenol (PGF, Estrumate, Schering-Plough Animal Health, Pointe-Claire, QC, Canada) intramuscularly (im) to induce regression of the CL and to synchronize ovulation. The experiment was performed in two replicates (n=20-27 per replicate) and each heifer was used only once. In replicate 1, heifers were assigned randomly at the time of ovulation (Day 0) to the following groups and given a 3-day regimen of letrozole from Days 1 to 3 (n=5), Days 3 to 5 (n=5), Days 5 to 7 (n=5), or no treatment (control group, n=5). In replicate 2, heifers were similarly assigned to groups and given letrozole from Days 1 to 3, (n=5), Days 3 to 5 (n=4), or Days 5 to 7 (n=4), but untreated control heifers were arranged in three sub-groups to serve as contemporaneous controls for each letrozole-group during intensive blood sampling periods (i.e., control Days 1 to 3, n=4; control Days 3 to 5, n=4; and control Days 5 to 7, n=5). For practical purposes, the total dose of letrozole (250 μg/kg) was calculated on the basis of an average weight of 350 kg for all heifers and administered intravenously in daily divided doses over 3 days (85 μg/kg per day). […]
Plasma progesterone concentrations were determined in duplicate using a commercial solid-phase kit (Coat-A-Count; Diagnostic Products Corporation, Los Angeles, Calif., USA). […]

## N#Cc1ccc(C(c2ccc(C#N)cc2)n2cncn2)cc1 [Letrozole, letrozole]
  differences in plasma progesterone concentrations vs control: not significant
